According to the supplement of paper PMC10307832:

How the values were obtained:
Assay in all cases: relative viability (nuclei count vs DMSO), 5 days (fraction); higher = more cells survive
Dactolisib + Navitoclax = compound: Cn1c(=O)n(-c2ccc(C(C)(C)C#N)cc2)c2c3cc(-c4cnc5ccccc5c4)ccc3ncc21 [Dactolisib] + CC1(C)CCC(c2ccc(Cl)cc2)=C(CN2CCN(c3ccc(C(=O)NS(=O)(=O)c4ccc(N[C@H](CCN5CCOCC5)CSc5ccccc5)c(S(=O)(=O)C(F)(F)F)c4)cc3)CC2)C1 [Navitoclax] (partner 0.5 µM)
How it was run: (§1)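 Five library-drug doses in √10 steps were combined with a fixed anchor-drug dose, or a single drug was given alone, by pin tool to lung cancer cell lines in 1536-well plates the day after seeding. Nuclei were stained and counted after 5 days. Relative viability is the nuclei count in treated wells over that in vehicle wells, taken as the median of duplicate plates.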

AZ505 + Phenformin = compound: C1CCC(CC1)N(CCNCCC2=C3C(=C(C=C2)O)NC(=O)CO3)C(=O)CCNCCC4=CC(=C(C=C4)Cl)Cl [AZ505] + N=C(N)NC(=N)NCCc1ccccc1 [Phenformin] (partner 250 µM)
How it was run: as §1

AZ505 + Trametinib = compound: C1CCC(CC1)N(CCNCCC2=C3C(=C(C=C2)O)NC(=O)CO3)C(=O)CCNCCC4=CC(=C(C=C4)Cl)Cl [AZ505] + CC(=O)Nc1cccc(-n2c(=O)n(C3CC3)c(=O)c3c(Nc4ccc(I)cc4F)n(C)c(=O)c(C)c32)c1 [Trametinib] (partner 0.02 µM)
How it was run: as §1

AZ505 + Decitabine = compound: C1CCC(CC1)N(CCNCCC2=C3C(=C(C=C2)O)NC(=O)CO3)C(=O)CCNCCC4=CC(=C(C=C4)Cl)Cl [AZ505] + Nc1ncn([C@H]2C[C@H](O)[C@@H](CO)O2)c(=O)n1 [Decitabine] (partner 2 µM)
How it was run: as §1

Cell Line	relative viability (Dactolisib + Navitoclax; first compound 0.002 µM)	relative viability (Dactolisib + Navitoclax; first compound 0.006325 µM)	relative viability (Dactolisib + Navitoclax; first compound 0.02 µM)	relative viability (Dactolisib + Navitoclax; first compound 0.06325 µM)	relative viability (Dactolisib + Navitoclax; first compound 0.2 µM)	relative viability (AZ505 + Phenformin; first compound 0.08 µM)	relative viability (AZ505 + Phenformin; first compound 0.253 µM)	relative viability (AZ505 + Phenformin; first compound 0.8 µM)	relative viability (AZ505 + Phenformin; first compound 2.53 µM)	relative viability (AZ505 + Phenformin; first compound 8 µM)	relative viability (AZ505 + Trametinib; first compound 0.08 µM)	relative viability (AZ505 + Trametinib; first compound 0.253 µM)	relative viability (AZ505 + Trametinib; first compound 0.8 µM)	relative viability (AZ505 + Trametinib; first compound 2.53 µM)	relative viability (AZ505 + Trametinib; first compound 8 µM)	relative viability (AZ505 + Decitabine; first compound 0.08 µM)	relative viability (AZ505 + Decitabine; first compound 0.253 µM)	relative viability (AZ505 + Decitabine; first compound 0.8 µM)	relative viability (AZ505 + Decitabine; first compound 2.53 µM)	relative viability (AZ505 + Decitabine; first compound 8 µM)
NCI-H1437	1.2	1.07	1.07	0.967	0.837	0.311	0.286	0.298	0.317	0.311	0.504	0.472	0.473	0.662	0.568	0.574	0.571	0.62	0.625	0.555
NCI-H1792	0.823	0.692	0.582	0.381	0.181	0.302	–	0.31	0.417	0.263	0.426	0.426	0.482	0.422	0.435	0.494	0.481	0.602	0.51	0.604
ChaGo-K-1	0.92	1.03	0.975	1.13	0.765	0.486	0.521	0.5	0.514	0.458	0.838	0.918	0.871	0.846	0.91	0.51	0.529	0.478	0.541	0.517
COR-L23	1.14	0.934	0.644	0.238	0.188	0.446	0.463	0.383	0.442	0.441	0.45	0.516	0.519	0.534	0.482	0.378	0.449	0.381	0.458	0.443
COR-L 105	0.754	0.759	1.02	0.323	0.271	0.451	0.454	0.547	0.473	0.583	0.403	0.452	0.446	0.428	0.476	0.375	0.653	0.591	0.637	0.729
LK-2	0.773	0.852	0.639	0.381	0.282	0.387	0.43	0.514	0.713	0.427	0.661	0.687	0.718	0.865	0.865	0.22	0.32	0.331	0.33	0.329
